# Values joined by “and” are separate entries in the source; they are usually repeats but may differ in a detail not shown here. Equal entries are not always repeated.
# Key:
# Test in all cases: MIC, 25 ocular isolates, broth microdilution (Example 8)
# Type in all cases: cell-based
# Serratia marcescens = conditions: 25 isolates; >128 was Replaced with 256
# Method: (§1) • Mueller-Hinton Broth in tubes was inoculated with 25 ocular isolates of Staphylococcus aureus fluoroquinolone-susceptible, Staphylococcus aureus fluoroquinolone-resistant, Staphylococcus epidermidis (Coagulase-negative Staphylococcus) fluoroquinolone-susceptible, Staphylococcus epidermidis (Coagulase-negative Staphylococcus) fluoroquinolone-resistant, Pseudomonas aeruginosa and Serratia marcescens, plus two controls (Staphylococcus aureus and E. coli) and incubated at 37° C. overnight on a shaker set at 250 rpm.
# (§2) On the day of testing, a 640 μg/ml (1280 μg/ml for Serratia marcescens and Pseudomonas aeruginosa) concentration was prepared from a 1% stock solution in 0.01% acetic acid, 0.2% BSA in polypropylene tubes.
# (§3) Serial doubling dilutions in 0.01% acetic acid, 0.2% BSA in 96 well polypropylene plates, which are used as reservoirs for the inoculation of the test plates, were carried out to obtain serial dilutions of test agents at 10 times the required test concentrations: 640, 320, 160, 80, 40, 20, 10, 5, 2.5, 1.25, and 0.625 μg/ml (1280, 640, 320, 160, 80, 40, 20, 10, 5, 2.5, and 1.25 μg/ml for Serratia marcescens and Pseudomonas aeruginosa).
# (§4) Ten μl of diluted 10×test agents was added to each well of one row of the 96 well polypropylene plates from column 2 to column 12 (column 1 is a control for bacteria alone, with no peptide). Test agent concentrations in columns 2-12 were as follows: 64, 32, 16, 8, 4, 2, 1, 0.5, 0.25, 0.125, and 0.0625 μg/ml (128, 64, 32, 16, 8, 4, 2, 1, 0.5, 0.25, and 0.125 μg/ml for Serratia marcescens and Pseudomonas aeruginosa). The same peptide was in each of the 8 rows. One plate contained dilutions of one test agent and 8 bacterial isolates.
# (§5) On the day of testing, the overnight bacterial broth cultures of Staphylococcus aureus fluoroquinolone-susceptible, Staphylococcus aureus fluoroquinolone-resistant, Staphylococcus epidermidis (Coagulase-negative Staphylococcus) fluoroquinolone-susceptible, Staphylococcus epidermidis (Coagulase-negative Staphylococcus) fluoroquinolone-resistant, Serratia marcescens, and Pseudomonas aeruginosa, plus two controls (Staphylococcus aureus and E. coli) were diluted in 5 ml of trypticase soy broth to yield turbidity equal to a 0.5 McFarland standard. The final inoculum for MIC testing for Staphylococcus aureus fluoroquinolone-susceptible, Staphylococcus aureus fluoroquinolone-resistant, Staphylococcus epidermidis (Coagulase-negative Staphylococcus) fluoroquinolone-susceptible, Staphylococcus epidermidis (Coagulase-negative Staphylococcus) fluoroquinolone-resistant, Serratia marcescens, and Pseudomonas aeruginosa was achieved by placing 0.05 ml of the turbidity adjusted sample to 5 ml of Mueller-Hinton broth.
# (§6) Ninety μl of the bacterial suspensions was dispensed in each well from column 1 to column 12. Each bacterial isolate was placed in one row of a 96 well polypropylene plate containing the test agents. The plates were placed on shaker at 15 minutes at room temperature, and then incubated at 37° C. overnight. MICs were determined visually as the lowest concentration of drug that inhibits visible bacterial growth.
# [1] = test system: Staphylococcus epidermidis (Coagulase-negative Staphylococcus) fluoroquinolone-resistant; conditions: 25 isolates; <0.0625 was Replaced with 0.03125
# Method: as §1, §2, §3, §4, §5, §6
# [2] = test system: Staphylococcus aureus fluoroquinolone-resistant; conditions: 25 isolates
# Method: as §1, §2, §3, §4, §5, §6
# Pseudomonas aeruginosa = conditions: 25 isolates; >128 was Replaced with 256
# Method: as §1, §2, §3, §4, §5, §6
# [3] = test system: Staphylococcus epidermidis (Coagulase-negative Staphylococcus) fluoroquinolone-susceptible; conditions: 25 isolates; <0.0625 was Replaced with 0.03125
# Method: as §1, §2, §3, §4, §5, §6
# [4] = test system: Staphylococcus aureus fluoroquinolone-susceptible; parameters: Mean MIC (Descriptive Statistics) / Minimum MIC (Descriptive Statistics) / Maximum MIC (Descriptive Statistics): unit: µg/mL; conditions: 25 isolates
# Method: as §1, §2, §3, §4, §5, §6
# Haemophilus influenzae = conditions: for Minimum MIC / Maximum MIC / Mean MIC: descriptive statistics, n=25; for Maximum MIC / Mean MIC / Median MIC: >64 replaced with 128; for Median MIC: n=25 isolates
# Method: (§7) HTM (Haemophilus Test Medium) in tubes was inoculated with 25 ocular isolates of Haemophilus influenzae plus two controls (Staphylococcus aureus and E. coli) and incubated at 37° C. overnight. Additionally, Mueller-Hinton Broth in tubes was inoculated with two controls (Staphylococcus aureus and E. coli) and incubated at 37° C. overnight on a shaker set at 250 rpm.
# as §2, §3, §4
# On the day of testing, the overnight bacterial broth cultures of Haemophilus species was diluted in 5 ml of trypticase soy broth to yield turbidity equal to a 0.5 McFarland standard. The final inoculum for MIC testing for Haemophilus species was achieved by placing 0.1 ml of the turbidity adjusted sample to 5 ml of HTM medium.
# as §6
# Streptococcus pneumoniae = conditions: 25 isolates; >64 was Replaced with 128
# Method: as §7, with “Mueller-Hinton Broth supplemented with 2% lysed horse blood” for “HTM (Haemophilus Test Medium)”, “Streptococcus pneumoniae, Streptococcus viridans group, and Moraxella species (including Moraxella catarrhalis)” for “Haemophilus influenzae”
# as §2, §3, §4
# (§8) On the day of testing, the overnight bacterial broth cultures of Streptococcus pneumoniae, Streptococcus viridans and Moraxella species (including Moraxella catarrhalis) plus two controls (Staphylococcus aureus and E. coli) were diluted in 5 ml of trypticase soy broth to yield turbidity equal to a 0.5 McFarland standard. The final inoculum for MIC testing for Streptococcus pneumoniae, Streptococcus viridans and Moraxella species (including Moraxella catarrhalis) was achieved by placing 0.1 ml of the turbidity adjusted sample to 5 ml of Mueller-Hinton broth containing 2% lysed horse red blood cells.
# as §6
# [5] = test system: Moraxella species (including Moraxella catarrhalis); conditions: for Minimum MIC / Maximum MIC / Mean MIC: descriptive statistics, n=25; for Maximum MIC / Mean MIC / Median MIC: >64 replaced with 128; for Median MIC: n=25 isolates
# Method: as §7, with “Mueller-Hinton Broth supplemented with 2% lysed horse blood” for “HTM (Haemophilus Test Medium)”, “Streptococcus pneumoniae, Streptococcus viridans group, and Moraxella species (including Moraxella catarrhalis)” for “Haemophilus influenzae”
# as §2, §3, §4, §8, §6
# [6] = test system: Streptococcus viridans group; conditions: 25 isolates; >64 was Replaced with 128
# Method: as §7, with “Mueller-Hinton Broth supplemented with 2% lysed horse blood” for “HTM (Haemophilus Test Medium)”, “Streptococcus pneumoniae, Streptococcus viridans group, and Moraxella species (including Moraxella catarrhalis)” for “Haemophilus influenzae”
# as §2, §3, §4, §8, §6
SMILES,Maximum MIC (Descriptive Statistics) (Serratia marcescens),Mean MIC (Descriptive Statistics) (Serratia marcescens),Median MIC (Descriptive Statistics / Mann-Whitney) (Serratia marcescens),Minimum MIC (Descriptive Statistics) (Serratia marcescens),Maximum MIC (Descriptive Statistics) [1],Mean MIC (Descriptive Statistics) [1],Median MIC (Descriptive Statistics / Mann-Whitney) [1],Minimum MIC (Descriptive Statistics) [1],Maximum MIC (Descriptive Statistics) [2],Mean MIC (Descriptive Statistics) [2],Median MIC (Descriptive Statistics / Mann-Whitney) [2],Minimum MIC (Descriptive Statistics) [2],Maximum MIC (Descriptive Statistics) (Pseudomonas aeruginosa),Mean MIC (Descriptive Statistics) (Pseudomonas aeruginosa),Median MIC (Descriptive Statistics / Mann-Whitney) (Pseudomonas aeruginosa),Minimum MIC (Descriptive Statistics) (Pseudomonas aeruginosa),Maximum MIC (Descriptive Statistics) [3],Mean MIC (Descriptive Statistics) [3],Median MIC (Descriptive Statistics / Mann-Whitney) [3],Minimum MIC (Descriptive Statistics) [3],also measured
N=C(N)NCCCCC(=O)Nc1cc(C(F)(F)F)cc(NC(=O)c2cnc(C(=O)Nc3cc(C(F)(F)F)cc(NC(=O)CCCCNC(=N)N)c3SCCN)cn2)c1SCCN [Olig 5],256 µg/mL,233 µg/mL,256.0,8 µg/mL,0.5000,0.1475,0.125,0.0313,0.5000,0.2900,0.2500,0.1250,256 µg/mL,85.9 µg/mL,64.0,4 µg/mL,0.2500,0.1375,0.125,0.0313,Maximum MIC (Descriptive Statistics) [4]: 0.5000; Mean MIC (Descriptive Statistics) [4]: 0.2450; Median MIC (Descriptive Statistics / Mann-Whitney) [4]: 0.2500; Minimum MIC (Descriptive Statistics) [4]: 0.1250; Minimum MIC (Haemophilus influenzae): 2.0 µg/mL; Maximum MIC (Haemophilus influenzae): 128.0 µg/mL; Mean MIC (Haemophilus influenzae): 48.6 µg/mL; Median MIC (Haemophilus influenzae): 16.0 µg/mL and 16.00 µg/mL; Maximum MIC (Descriptive Statistics) (Streptococcus pneumoniae): 128 µg/mL; Mean MIC (Descriptive Statistics) (Streptococcus pneumoniae): 10.6 µg/mL; Median MIC (Descriptive Statistics / Mann-Whitney) (Streptococcus pneumoniae): 4.00; Minimum MIC (Descriptive Statistics) (Streptococcus pneumoniae): 0.5 µg/mL; Minimum MIC [5]: 0.13 µg/mL; Maximum MIC [5]: 128.00 µg/mL; Mean MIC [5]: 13.26 µg/mL; Median MIC [5]: 0.50 µg/mL; Maximum MIC (Descriptive Statistics) [6]: 128 µg/mL; Mean MIC (Descriptive Statistics) [6]: 36.8 µg/mL; Median MIC (Descriptive Statistics / Mann-Whitney) [6]: 16.00; Minimum MIC (Descriptive Statistics) [6]: 0.5 µg/mL
N=C(N)NCCCCC(=O)Nc1cc(C(F)(F)F)cc(NC(=O)c2cc(C(=O)Nc3cc(C(F)(F)F)cc(NC(=O)CCCCNC(=N)N)c3O[C@@H]3CCNC3)ncn2)c1O[C@@H]1CCNC1 [Olig 4],32 µg/mL,12.4 µg/mL,8.00,0.25 µg/mL,0.2500,0.1300,0.125,0.0313,1.0000,0.3200,0.2500,0.1250,8 µg/mL,3.54 µg/mL,4.00,0.5 µg/mL,0.2500,0.1388,0.125,0.0313,Maximum MIC (Descriptive Statistics) [4]: 0.5000; Mean MIC (Descriptive Statistics) [4]: 0.2850; Median MIC (Descriptive Statistics / Mann-Whitney) [4]: 0.2500; Minimum MIC (Descriptive Statistics) [4]: 0.1250; Minimum MIC (Haemophilus influenzae): 2.00 µg/mL; Maximum MIC (Haemophilus influenzae): 32.00 µg/mL; Mean MIC (Haemophilus influenzae): 8.56 µg/mL; Median MIC (Haemophilus influenzae): 8.00 µg/mL; Maximum MIC (Descriptive Statistics) (Streptococcus pneumoniae): 128 µg/mL; Mean MIC (Descriptive Statistics) (Streptococcus pneumoniae): 6.08 µg/mL; Median MIC (Descriptive Statistics / Mann-Whitney) (Streptococcus pneumoniae): 1.00; Minimum MIC (Descriptive Statistics) (Streptococcus pneumoniae): 0.5 µg/mL; Minimum MIC [5]: 0.50 µg/mL; Maximum MIC [5]: 128.00 µg/mL; Mean MIC [5]: 21.42 µg/mL; Median MIC [5]: 4.00 µg/mL; Maximum MIC (Descriptive Statistics) [6]: 32 µg/mL; Mean MIC (Descriptive Statistics) [6]: 5.84 µg/mL; Median MIC (Descriptive Statistics / Mann-Whitney) [6]: 4.00; Minimum MIC (Descriptive Statistics) [6]: 1 µg/mL

# Reference: patent US20130065818A1, “Arylamide Compounds And Compositions And Uses Thereof” (POLYMEDIX, priority 2006, published 2013)
